Data from article PMC4928094, “The first characterization of multidrug and toxin extrusion (MATE/SLC47) proteins in zebrafish (Danio rerio)” (Scientific Reports, 2016).

Tests used:
[1] = biological target: T1, zebrafish Mate3 (Danio rerio, UniProt A1L1P9); assay: Uptake of fluorescent dyes by HEK293T cells overexpressing zebrafish Mate3; conditions: dye uptake, mean ± SD; for Km: triplicate, representative experiment
T1 sequence (A1L1P9 1-590): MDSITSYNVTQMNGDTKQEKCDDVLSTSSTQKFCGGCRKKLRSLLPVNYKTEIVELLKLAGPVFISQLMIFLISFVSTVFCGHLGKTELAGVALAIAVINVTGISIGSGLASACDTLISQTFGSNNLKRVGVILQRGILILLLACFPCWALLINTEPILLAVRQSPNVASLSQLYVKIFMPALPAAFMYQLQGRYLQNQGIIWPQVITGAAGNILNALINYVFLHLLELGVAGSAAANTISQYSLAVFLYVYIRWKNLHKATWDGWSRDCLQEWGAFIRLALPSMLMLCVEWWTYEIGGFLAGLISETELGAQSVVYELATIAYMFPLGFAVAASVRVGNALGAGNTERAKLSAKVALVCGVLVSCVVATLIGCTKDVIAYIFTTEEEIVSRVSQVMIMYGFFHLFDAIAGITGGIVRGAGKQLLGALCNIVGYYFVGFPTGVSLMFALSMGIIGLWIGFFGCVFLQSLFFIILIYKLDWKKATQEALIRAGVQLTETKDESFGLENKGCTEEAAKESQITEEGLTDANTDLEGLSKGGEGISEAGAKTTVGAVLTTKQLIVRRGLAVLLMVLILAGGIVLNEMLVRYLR
Method: (§1) HEK293T cells were transiently transfected as described previously[31] using the PEI (polyethyleneimine) reagent in 48-well plates. Cells were in parallel transfected with pcDNA3.1/His/LacZ plasmid and transfection efficiency was evaluated 24 h after transfection with the LacZ staining protocol.
(§2) HEK293T cells overexpressing respective single zebrafish Mate transporter were used for further experiments. Cell uptake of all substrates except DAPI was measured in sodium based transport medium (145 mM NaCl, 3 mM KCl, 1 mM CaCl2, 0.5 mM MgCl2, 5 mM glucose and 10 mM Tris, pH 8.4). Briefly, after 5 minute incubation period, the cells were rapidly washed two times with ice-cold phosphate-buffered saline (PBS), lysed in 250 μL of 0.1% sodium dodecyl sulphate for 30 min and transferred to the black 96-well plates where fluorescence was measured using the microplate reader (Infinite M200, Tecan, Salzburg, Austria) at following excitation and emission wavelengths: ASP^+, 450/590 nm; EtBr, 535/590 nm; Rh123, 485/530 nm; berberine, 355/540 nm; amiloride, 366/418 nm. […] DAPI fluorescence was measured at 360 and 460 nm […], respectively. The uptake into vector-transfected HEK293T cells (mock cells) was subtracted to obtain transporter-specific uptake.
(§3) Calibration curves for all substrates were generated in 0.1% SDS and in the cell matrix dissolved in 0.1% SDS. […] Using the calibration curves, uptake was expressed as pmol of substrate per mg of protein per minute. Total cell protein content was determined according to the Bradford method.
(§4) All assays were performed in 3–5 independent experiments run in triplicates. Data shown on related figures represent mean ± standard errors (SE) or standard deviations (SD). All calculations were performed using GraphPad Prism 5.00 for Windows (GraphPad Software, San Diego, California, USA) as described below. The kinetic parameters, Km and Vmax values were calculated using the Michaelis-Menten equation,
where V is velocity (picomoles of substrate per milligram of proteins per minute), Vmax is maximal velocity, [S] is substrate concentration and Km is the Michaelis Menten constant. The uptake into vector-transfected HEK293 cells was subtracted to obtain transporter-specific uptake.

[2] = biological target: T2, zebrafish Mate8 (Danio rerio, UniProt A0A8M6YZ09); assay: Uptake of fluorescent dyes by HEK293T cells overexpressing zebrafish Mate8; conditions: dye uptake, mean ± SD, NT = no transport found
Method: as §1, §2, §3
as §4, with “equation, […]” for “equation,”

[3] = biological target: T3, zebrafish Mate6 (Danio rerio, UniProt A1L2E7); assay: Uptake of fluorescent dyes by HEK293T cells overexpressing zebrafish Mate6; conditions: dye uptake, mean ± SD
Method: as §1, §2, §3
as §4, with “equation, […]” for “equation,”

[4] = biological target: T4, zebrafish Mate7 (Danio rerio, UniProt U3PTD6); assay: Uptake of fluorescent dyes by HEK293T cells overexpressing zebrafish Mate7; conditions: dye uptake, mean ± SD
Method: as §1, §2, §3
as §4, with “equation, […]” for “equation,”

[5] = biological target: T5, zebrafish Mate4 (Danio rerio, UniProt U3Q0C3); assay: Uptake of fluorescent dyes by HEK293T cells overexpressing zebrafish Mate4; conditions: dye uptake, mean ± SD, NT = no transport found
Method: as §1, §2, §3
as §4, with “equation, […]” for “equation,”

[6] = biological target: T5, zebrafish Mate4; assay: DAPI inhibition assay, Mate4; format: cell-based; conditions: Mate4; inhibition of DAPI (1 μM) uptake; n = 3; NE = no effect in the compound solubility range; read-out: IC50
Method: as §1
(§5) HEK293T cells overexpressing respective single zebrafish Mate transporter were used for further experiments. […] DAPI fluorescence was measured at 360 and 460 nm […], respectively. The uptake into vector-transfected HEK293T cells (mock cells) was subtracted to obtain transporter-specific uptake.
(§6) Inhibition assays using DAPI as a fluorescent substrate were performed in the same transport medium. […] Compounds tested for interaction were checked using at least four concentrations but only a representative concentration (with the highest response or the largest concentration in solubility range) is shown.
(§7) For the purpose of IC50 calculations, data were fitted to the sigmoidal four-parameter dose-response model (variable slope),

[7] = biological target: T2, zebrafish Mate8; assay: DAPI inhibition assay, Mate8; format: cell-based; conditions: Mate8
Method: as §1, §5, §6, §7

[8] = biological target: T4, zebrafish Mate7; assay: DAPI inhibition assay, Mate7; format: cell-based; conditions: Mate7; inhibition of DAPI (2.5 μM) uptake; n = 3; NE = no effect in the compound solubility range; read-out: IC50
Method: as §1, §5, §6, §7

[9] = test system: human MATE1; conditions: human MATE1 ref 18; cited from earlier work
[10] = biological target: T3, zebrafish Mate6; assay: DAPI inhibition assay, Mate6; format: cell-based; conditions: Mate6; inhibition of DAPI (1 μM) uptake; n = 3; NE = no effect in the compound solubility range; read-out: IC50
Method: as §1, §5, §6, §7

[11] = biological target: T1, zebrafish Mate3; assay: DAPI inhibition assay, Mate3; format: cell-based; design: expressed in transfected cells; host or cells: HEK293T; conditions: Mate3; inhibition of DAPI (2.5 μM) uptake; n = 3; NE = no effect in the compound solubility range; read-out: IC50
Method: as §1, §5, §6, §7

[12] = substrate: N=C(N)NC(=O)c1nc(Cl)c(N)nc1N; assay: cells, lysate or membranes; conditions: dye uptake, HEK293T, mean ± SD
Method: (§8) Calibration curves for all substrates were generated in 0.1% SDS and in the cell matrix dissolved in 0.1% SDS. Resulting linear calibration curves were the same in the SDS and in the dissolved cell matrix. Using the calibration curves, uptake was expressed as pmol of substrate per mg of protein per minute. Total cell protein content was determined according to the Bradford method[33].
(§9) All assays were performed in 3–5 independent experiments run in triplicates. […] All calculations were performed using GraphPad Prism 5.00 for Windows (GraphPad Software, San Diego, California, USA) as described below. The kinetic parameters, Km and Vmax values were calculated using the Michaelis-Menten equation,

[13] = substrate: COc1ccc2cc3[n+](cc2c1OC)CCc1cc2c(cc1-3)OCO2; assay: cells, lysate or membranes; conditions: dye uptake, HEK293T, mean ± SD
Method: as §8, §9

[14] = substrate: CN(C)c1ccc(/C=C/c2cc[n+](C)cc2)cc1; assay: cells, lysate or membranes; conditions: dye uptake, HEK293T, mean ± SD
Method: as §8, §9

[15] = substrate: COC(=O)c1ccccc1-c1c2ccc(=N)cc-2oc2cc(N)ccc12; assay: cells, lysate or membranes; conditions: dye uptake, HEK293T, mean ± SD
Method: as §8, §9

[16] = other: Mate3, triplicate, representative experiment

T2 sequence (A0A8M6YZ09 entry or part of it): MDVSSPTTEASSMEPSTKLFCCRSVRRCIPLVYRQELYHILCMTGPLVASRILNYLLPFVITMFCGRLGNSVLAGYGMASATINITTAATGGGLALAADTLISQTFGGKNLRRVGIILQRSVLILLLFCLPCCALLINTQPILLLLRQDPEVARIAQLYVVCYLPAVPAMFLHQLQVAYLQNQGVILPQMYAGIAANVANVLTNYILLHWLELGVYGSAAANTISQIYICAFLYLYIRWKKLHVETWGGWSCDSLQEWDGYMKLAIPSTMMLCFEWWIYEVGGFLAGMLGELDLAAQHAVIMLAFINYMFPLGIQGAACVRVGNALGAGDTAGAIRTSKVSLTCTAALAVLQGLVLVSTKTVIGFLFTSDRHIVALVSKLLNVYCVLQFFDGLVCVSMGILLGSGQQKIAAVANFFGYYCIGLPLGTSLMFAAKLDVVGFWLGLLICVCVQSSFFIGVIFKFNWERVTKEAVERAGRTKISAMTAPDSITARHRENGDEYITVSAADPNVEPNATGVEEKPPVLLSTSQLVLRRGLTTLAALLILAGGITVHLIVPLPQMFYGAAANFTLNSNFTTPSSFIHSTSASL
T5 sequence (U3Q0C3 entry or part of it): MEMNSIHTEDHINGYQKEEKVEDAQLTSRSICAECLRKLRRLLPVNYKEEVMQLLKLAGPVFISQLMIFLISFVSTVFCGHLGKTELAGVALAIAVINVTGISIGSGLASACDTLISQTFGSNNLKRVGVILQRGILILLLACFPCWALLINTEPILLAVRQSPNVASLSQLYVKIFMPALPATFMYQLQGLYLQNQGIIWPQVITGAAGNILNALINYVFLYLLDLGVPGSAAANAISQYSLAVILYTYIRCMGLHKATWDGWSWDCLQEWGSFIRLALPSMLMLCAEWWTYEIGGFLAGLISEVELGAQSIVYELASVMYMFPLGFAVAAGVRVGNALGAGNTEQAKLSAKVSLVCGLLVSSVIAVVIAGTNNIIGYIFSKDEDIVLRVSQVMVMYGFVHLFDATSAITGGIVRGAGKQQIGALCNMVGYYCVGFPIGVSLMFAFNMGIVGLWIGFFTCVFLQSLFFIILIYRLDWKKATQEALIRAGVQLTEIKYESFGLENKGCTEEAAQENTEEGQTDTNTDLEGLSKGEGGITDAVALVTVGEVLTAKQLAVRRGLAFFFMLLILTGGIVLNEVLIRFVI

COC(=O)c1ccccc1-c1c2ccc(=N)cc-2oc2cc(N)ccc12 [Rh123, rhodamine 123]
vmax [1]: 105 ± 5.16 pmol/mg protein/min
vmax [2]: 12.3 ± 0.61 pmol/mg protein/min
vmax [3]: 55.6 ± 1.48 pmol/mg protein/min
vmax [4]: 4.79 ± 0.17 pmol/mg protein/min
vmax [5]: 1.03 ± 0.03 pmol/mg protein/min

C[n+]1ccc(-c2ccccc2)cc1 [MPP^+, 1-methyl-4-phenylpyridinium, reference compound]
IC50 [6]: 434 µM
interaction strength ([7]; class by IC50 of DAPI uptake inhibition): weak (IC50 of 100–999 μM was classified as weak interaction)
IC50 ([7]; inhibition of DAPI (1 μM) uptake, n = 3, NE = no effect in the compound solubility range, read-out: IC50): 978 µM
IC50 [8]: 93.6 µM
Km [9]: 100 µM
IC50 [10]: 27.9 µM
IC50 [11]: 2430 µM

N=C(N)c1ccc(-c2cc3ccc(C(=N)N)cc3[nH]2)cc1 [DAPI, 4′,6-diamidino-2-phenylindole]
vmax [1]: 436 ± 21.8 pmol/mg protein/min
Km [1]: 2.83 ± 0.34 µM
Km [2]: 0.55 ± 0.07 µM
vmax [2]: 24.4 ± 0.70 pmol/mg protein/min
Km [3]: 0.26 ± 0.05 µM
vmax [3]: 44.3 ± 1.80 pmol/mg protein/min
Km [4]: 1.44 ± 0.19 µM
vmax [4]: 193 ± 9.15 pmol/mg protein/min
Km [5]: 0.29 ± 0.04 µM
vmax [5]: 47.7 ± 2.27 pmol/mg protein/min

CC[n+]1c(-c2ccccc2)c2cc(N)ccc2c2ccc(N)cc21 [EtBr, ethidium bromide]
vmax [1]: 825 ± 25.5 pmol/mg protein/min
Km [1]: 5.56 ± 0.5 µM

B1: zebrafish Mate3 (Danio rerio) (protein)
chain: MDSITSYNVTQMNGDTKQEKCDDVLSTSSTQKFCGGCRKKLRSLLPVNYKTEIVELLKLAGPVFISQLMIFLISFVSTVFCGHLGKTELAGVALAIAVINVTGISIGSGLASACDTLISQTFGSNNLKRVGVILQRGILILLLACFPCWALLINTEPILLAVRQSPNVASLSQLYVKIFMPALPAAFMYQLQGRYLQNQGIIWPQVITGAAGNILNALINYVFLHLLELGVAGSAAANTISQYSLAVFLYVYIRWKNLHKATWDGWSRDCLQEWGAFIRLALPSMLMLCVEWWTYEIGGFLAGLISETELGAQSVVYELATIAYMFPLGFAVAASVRVGNALGAGNTERAKLSAKVALVCGVLVSCVVATLIGCTKDVIAYIFTTEEEIVSRVSQVMIMYGFFHLFDAIAGITGGIVRGAGKQLLGALCNIVGYYFVGFPTGVSLMFALSMGIIGLWIGFFGCVFLQSLFFIILIYKLDWKKATQEALIRAGVQLTETKDESFGLENKGCTEEAAKESQITEEGLTDANTDLEGLSKGGEGISEAGAKTTVGAVLTTKQLIVRRGLAVLLMVLILAGGIVLNEMLVRYLR
Km [12, 16]: 33.4 ± 4.57 µM
Vmax [12, 16]: 53.1 ± 4.0 pmol/mg protein/min
Km [13, 16]: 14.4 ± 5.14 µM
Vmax [13, 16]: 242 ± 46.9 pmol/mg protein/min
Km [14, 16]: 13.4 ± 1.55 µM
Vmax [14, 16]: 296 ± 14.0 pmol/mg protein/min
Km [15, 16]: 8.52 ± 1.25 µM

B2: zebrafish Mate6 (Danio rerio) (protein)
chain: MPEAGGPLANTEQITEATAPSSKLLGCSCVRRWVPLAYREELYHVLCLTGPLLISRILSFLLPFVTTIFCGHLGNAELAGYALASATVNVTTTATGCGLALACDTLVSQTFGSKNHKRVGEILQRSMLILLLFCLPCWAILINAESILLALKQEPEVARIAQLYVTAYLPAVPAMFLHYLQVSYLQNQGIILPQMYTAVAANILNVATNYILLHAMKLGVKGSAAANSISQITICLLLFAYIRWKKLHLKTWGGWSTASLQEWGSYMKLAIPSTLMLCFEWWIYEIGGFLAGMLGEVDLAAQHVLLEIGSIAYMFPLGVHAAACVRVGNALGAGDTVRALITSKVTLMISGILAFAQGIGIALTKSKLGYIFTSDESIVAIVSQNLTLYVFLQFFDALVCVCSGILLGAGKQKIAAVSNLICYYCIGLPVGISLMFLAELRILGLWLGLLICVIIQTCFFTTLIFKLDWKKVTEQAQKRAGKHAKVVCLPKAPLIGPVVETLVSEDQDNTEQTDGTSSIPEPWDDITGNKAQLTSSSSEVSSYIQVSTQDQDKLASECGEGQPKVLLSIKQLVLRRGLTLLITLLILIAGITVHVVCPLPEHSVQRQSNFTNDSGNFSTPFSILNITMS
Km ([12]; other: Mate6): 11.1 ± 2.12 µM
Vmax ([12]; other: Mate6): 24.8 ± 1.54 pmol/mg protein/min
Km ([13]; other: Mate6): 8.35 ± 1.00 µM
Vmax ([13]; other: Mate6): 215 ± 9.72 pmol/mg protein/min
Km ([14]; other: Mate6): 6.23 ± 1.02 µM
Vmax ([14]; other: Mate6): 160 ± 10.8 pmol/mg protein/min
Km ([15]; other: Mate6): 1.73 ± 0.16 µM

B3: zebrafish Mate7 (Danio rerio) (protein)
chain: MDVSSPGTDNLSMEPSAKLFCCGFMRRCIPLVYREELYHILRMTGPLLVCRFLNFLLFFVVTMFCGRLGNTVLAGYAMASATINVTAAATGLGLALACDTLVSQTFGSKNLLRVGIILQRGIVILTLFSLPCWALLVNTQPLLLYLGQEPEVARIAQLYVVVYLPAIPAMFLYQLQLSYLQNQGVIKPQMYASAVANVANVIANYFLLYWWDFGVYGSAAANTFAQVFNCFALFCFIRWQKLHEKTWGGWSLEALQDWGSYMKLAIPSTLMTCFEWWIYEVGGFLAGMLSEVDLAAQHVVIMLAYINYMIPLGMQGAACVRVGNALGAGETAAAILTSKVSLISAAVIAIIQGFVLGSTKTVIGYIFTSDESITELVSQLLNIYCPLQFFNGILCVGMGVLLGTGQQKIAAIANLFGYYCVGLPSSIVLMFTAGLQVAGFWLGLLIAVFLLAIFFTVAIFKLNWKKMTEEAIARTGKSANGAANGTMTTEFCSNHRNSFYQVVLNAENGNGYMVVSSQDQDERLNSTAVPEEPNVTGVEEKPPVLLSTTQLVLRRGLTTVAALLILAVGIIIHLTVPLPQVSYGAGANYTVDSNFTTANPIYSTSFI
Km ([12]; other: Mate7): 20.6 ± 4.20 µM
Vmax ([12]; other: Mate7): 19.8 ± 1.84 pmol/mg protein/min
Km ([13]; other: Mate7): 1.76 ± 0.38 µM
Vmax ([13]; other: Mate7): 28.0 ± 2.39 pmol/mg protein/min
Km ([14]; other: Mate7): 3.51 ± 0.27 µM
Vmax ([14]; other: Mate7): 52.3 ± 1.26 pmol/mg protein/min
Km ([15]; other: Mate7): 0.22 ± 0.03 µM
